The target of assay [1] is Human Dopamine Transporter (DAT (h)) (Homo sapiens (Human), UniProt Q01959). Description: Radioligand binding assay, human dopamine transporter ([3H]BTCP). The note with it: 2 h; single concentration 1.0 E-5 M, duplicate, mean values. How it is done: (The measurement was performed as described in Pristuba, Z. B., Wilson, J. M., Hoffman, B. J., Kish, S. J. and Nisnik, H. B. (1994), Pharmacological heterogeneity of the cloned and native human dopamine transporter: disassociation of [3H]WIN 35,428 and [3H]GBR 12,935 binding, Mol. Pharmacol., 45: 125)
Chain of Human Dopamine Transporter (DAT (h)) (Q01959 whole entry): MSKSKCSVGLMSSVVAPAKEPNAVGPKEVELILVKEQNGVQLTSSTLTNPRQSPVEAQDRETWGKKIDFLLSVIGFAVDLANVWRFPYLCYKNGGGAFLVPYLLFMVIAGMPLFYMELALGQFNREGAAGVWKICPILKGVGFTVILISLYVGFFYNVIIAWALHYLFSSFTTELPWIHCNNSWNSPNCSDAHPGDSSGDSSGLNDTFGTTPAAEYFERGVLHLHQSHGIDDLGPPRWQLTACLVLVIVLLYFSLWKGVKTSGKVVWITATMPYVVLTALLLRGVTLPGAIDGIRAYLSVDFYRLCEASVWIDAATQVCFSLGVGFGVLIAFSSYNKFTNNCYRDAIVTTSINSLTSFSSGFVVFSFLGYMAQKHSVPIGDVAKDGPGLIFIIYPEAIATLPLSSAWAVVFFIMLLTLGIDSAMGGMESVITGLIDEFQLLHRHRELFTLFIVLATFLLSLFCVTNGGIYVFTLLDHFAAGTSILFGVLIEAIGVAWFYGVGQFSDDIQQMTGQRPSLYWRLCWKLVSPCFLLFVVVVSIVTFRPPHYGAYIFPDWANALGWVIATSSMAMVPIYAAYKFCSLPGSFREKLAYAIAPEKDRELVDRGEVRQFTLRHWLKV
Cell membrane homogenates (20 μg protein) are incubated for 120 min at 4° C. with 4 nM
(§1) [3H]BTCP in the absence or presence of the test compound in a buffer containing 50 mM Tris-HCl (pH 7.4) and 100 mM NaCl. Nonspecific binding is determined in the presence of 10 μM BTCP. Following incubation, the samples are filtered rapidly under vacuum through glass fiber filters (GF/B, Packard) presoaked with 0.3% PEI and rinsed several times with ice-cold 50 mM Tris-HCl using a 96-sample cell harvester (Unifilter, Packard). The filters are dried then counted for radioactivity in a scintillation counter (Topcount, Packard) using a scintillation cocktail (Microscint 0, Packard).
(§2) The results are expressed as a percent inhibition of the control radioligand specific binding.
(§3) […] Reported values are mean values.

Assay [2] addresses Human Norepinephrine Transporter (NET (h)) (Homo sapiens (Human), UniProt P23975). Put plainly: Radioligand binding assay, human norepinephrine transporter ([3H]nisoxetine). The note with it: 2 h; single concentration 1.0 E-5 M, duplicate, mean values. How it is done:
(The measurement was performed as described in Pacholczyk, T., Blakely, R. D. and Amara, S. G. (1991), Expression cloning of a cocaine- and antidepressant-sensitive human noradrenaline transporter, Nature, 350: 350)
as §1, with “Cell membrane homogenates (20 μg protein) are incubated for 120 min at 4° C. with 1 nM [3H]nisoxetine” for “[3H]BTCP”, “7.4), 120 mM NaCl” for “7.4)”, “5” for “100”, “KCl.” for “NaCl.”, “1” for “10”, “desipramine.” for “BTCP.”
as §2, §3

Assay [3] deals with Human 5-HT Transporter (SERT (h)) (Homo sapiens (Human), UniProt P31645). Put plainly: Radioligand binding assay, human 5-HT transporter ([3H]imipramine). The note with it: 1 h; single concentration 1.0 E-5 M, duplicate, mean values. Here is the method:
(The measurement was performed as described in Tatsumi, M., Jansen, K., Blakely, R. D. and Richelson, E. (1999), Pharmacological profile of neuroleptics at human monoamine transporters, Eur. J. Pharmacol.
Cell membrane homogenates (12 μg protein) are incubated for 60 min at 22° C. with 2 nM [3H]imipramine in the absence or presence of the test compound in a buffer containing 50 mM Tris-HCl (pH 7.4), 120 mM NaCl, 5 mM KCl and 0.1% BSA.
Nonspecific binding is determined in the presence of 10 μM imipramine.
Following incubation, the samples are filtered rapidly under vacuum through glass fiber filters (GF/B, Packard) presoaked with 0.3% PEI and rinsed several times with an ice-cold buffer containing 50 mM Tris-HCl and 150 mM NaCl using a 96-sample cell harvester (Unifilter, Packard). The filters are dried then counted for radioactivity in a scintillation counter (Topcount, Packard) using a scintillation cocktail (Microscint 0, Packard).
The results are expressed as a percent inhibition of the control radioligand specific binding
as §3

Assay [4] concerns NA, DA and 5-HT. Description: In vivo brain microdialysis: extracellular monoamines in striatum and frontal cortex. The arrangement: species or system Sprague-Dawley rats. The note with it: 50 μmol/kg s.c., n=1-3; for response vs control in vivo at 50 µmol/kg: Rattus norvegicus, sc. From the text:
The microdialysis technique is a well-established technique for measuring extracellular levels of neurotransmitters (Ungerstedt, J Int Med, 1991, 230; 365-73). The microdialysis technique was used to measure the effect of compounds disclosed herein upon the efflux of monoamine transmitters (NA, DA and 5-HT) in striatum and frontal cortex in conscious, freely moving rats.
Male Sprague-Dawley rats weighing 280-320 g were used throughout the experiments. Before the experiment the animals were housed in groups, maximum five animals in each cage, with free access to water and food. The animals were housed at least one week prior to surgery and use in the experiments.
A modified version (Waters et al., J Neural Transm Gen Sect, 1994, 98(1); 39-55) of the !-shaped probe (Santiago and Westerink, N-S Arch Pharmacol, 1990, 342; 407-14) with the AN69 polyacrylonitrile/sodium methyl sulfonate copolymer (HOSPAL; o.d/i.d. 310/220 μm: dialysis membrane (Gambro, Lund, Sweden) was used in the microdialysis experiments. In the dorsal striatum, probes with an exposed length of 3 mm of dialysis membrane were used and in the prefrontal cortex the corresponding length was 2.5 mm. The rats were operated under isoflurane inhalation anesthesia while mounted into a Kopf stereotaxic instrument. Coordinates were calculated relative to bregma; dorsal striatum AP+1.0, ML±2.6, DV 6.2; Pf cortex, AP+3.2, ML±1.2, DV −4.0 8°, according to Paxinos and Watson (New York, Academic Press, 1986; FIG. 8 and FIG. 14). The dialysis probe was positioned in a burr hole under stereotaxic guidance and cemented with phosphatine dental cement (DAB Dental).
The rats were housed individually in cages for 48 h before the dialysis experiments, allowing them to recover from surgery and minimizing the risk of drug interactions with the anesthetics during the following experiments. During this period the rats had free access to food and water. On the day of the experiment the rats were connected to a micro-perfusion pump via a swivel and were replaced in the cage where they could move freely within its confinements. The perfusion medium was a Ringer's solution containing (in mmol/l): NaCl; 140, CaCl2); 1.2, KCl; 3.0, MgCl2; 1.0 (Moghaddam and Bunney. Neurochem., 1989, 53; 652-4). The pump was set to a perfusion speed of 2 μl/min and 40 μl sample volume were collected every 20 min.
The rats were perfused for at least 40 min before sampling began. Five fractions of each 20 min were collected and the last three were used for the establishment of the baseline. After collection of baseline fractions, the pharmacological challenge to the dialysis experiment started. Test compounds were administrated by injection (s.c.) in a volume of 5 ml/kg, with 0.9% NaCl (saline) as vehicle.
The analytical method were based on two chromatographic separations dedicated for amines or acids. Two chromatographic systems shared a common auto injector with a 10-port valve and two sample loops for simultaneous injection on the two systems.
The acids were separated by reversed phase chromatography while the amines were separated by reversed phase ion pairing chromatography preceded by a reverse phase separation in a column switching configuration. Three separation columns (Luna C18 (2), dp 3 μm, 2 mm i.d., Phenomenex) of different lengths were used. Electrochemical detection was accomplished on glassy carbon electrodes (MF-1000, Bioanalytical Systems, Inc.)
The aqueous mobile phase (0.6 ml/min) for the acid system contained citric acid (40 mM, dipotassium hydrogen phosphate 10 mM, methanol 8-11% (v/v) and EDTA 0.1 mM. Column length was 30 mm and detection potential relative to Ag/AgCl reference was 0.74V.
The aqueous ion pairing mobile phase (0.4 ml/min) for the amine system contained citric acid 5 mM, sodium citrate 10 mM, acetone 9% (v/v), tetrahydrofurane 3% (v/v), dodecane sulphonic acid 0.025 mM, and EDTA 0.1 mM. Column length was 50 mm and the preceding column was 20 mm. […]

Setting [5] is: frontal cortex, read-out: 5-HT FC, maximum effect compared to baseline ± SEM.
Where [6] appears, read: frontal cortex, read-out: DA FC, maximum effect compared to baseline ± SEM.
Where [7] appears, read: frontal cortex, read-out: NA FC, maximum effect compared to baseline ± SEM.
Setting [8] is: striatum, read-out: 5-HT Stri, maximum effect compared to baseline ± SEM.
Setting [9] is: striatum, read-out: DA Stri, maximum effect compared to baseline ± SEM.

Structures can show the parent of a compound that is named as a salt. Where two headings read alike, the source gives them in different places. Marks after values point to notes of the source that are not given here.

Chain of Human 5-HT Transporter (SERT (h)) (P31645 whole entry): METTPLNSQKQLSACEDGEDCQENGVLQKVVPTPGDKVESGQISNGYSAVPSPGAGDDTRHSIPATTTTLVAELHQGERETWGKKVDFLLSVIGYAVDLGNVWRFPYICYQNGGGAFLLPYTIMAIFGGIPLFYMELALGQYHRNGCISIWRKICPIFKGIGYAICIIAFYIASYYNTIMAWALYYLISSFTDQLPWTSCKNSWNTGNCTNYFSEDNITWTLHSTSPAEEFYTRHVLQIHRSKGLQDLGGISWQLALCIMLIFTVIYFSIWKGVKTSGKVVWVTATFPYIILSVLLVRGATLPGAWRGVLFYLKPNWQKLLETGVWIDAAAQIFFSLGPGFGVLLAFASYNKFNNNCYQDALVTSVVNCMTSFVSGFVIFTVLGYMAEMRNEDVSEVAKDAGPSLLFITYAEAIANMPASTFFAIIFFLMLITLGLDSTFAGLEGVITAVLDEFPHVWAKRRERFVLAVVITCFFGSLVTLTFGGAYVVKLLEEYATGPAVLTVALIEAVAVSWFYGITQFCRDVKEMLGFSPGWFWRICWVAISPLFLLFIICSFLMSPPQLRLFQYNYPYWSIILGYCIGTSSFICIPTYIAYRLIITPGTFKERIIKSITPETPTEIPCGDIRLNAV
Chain of Human Norepinephrine Transporter (NET (h)) (P23975 whole entry): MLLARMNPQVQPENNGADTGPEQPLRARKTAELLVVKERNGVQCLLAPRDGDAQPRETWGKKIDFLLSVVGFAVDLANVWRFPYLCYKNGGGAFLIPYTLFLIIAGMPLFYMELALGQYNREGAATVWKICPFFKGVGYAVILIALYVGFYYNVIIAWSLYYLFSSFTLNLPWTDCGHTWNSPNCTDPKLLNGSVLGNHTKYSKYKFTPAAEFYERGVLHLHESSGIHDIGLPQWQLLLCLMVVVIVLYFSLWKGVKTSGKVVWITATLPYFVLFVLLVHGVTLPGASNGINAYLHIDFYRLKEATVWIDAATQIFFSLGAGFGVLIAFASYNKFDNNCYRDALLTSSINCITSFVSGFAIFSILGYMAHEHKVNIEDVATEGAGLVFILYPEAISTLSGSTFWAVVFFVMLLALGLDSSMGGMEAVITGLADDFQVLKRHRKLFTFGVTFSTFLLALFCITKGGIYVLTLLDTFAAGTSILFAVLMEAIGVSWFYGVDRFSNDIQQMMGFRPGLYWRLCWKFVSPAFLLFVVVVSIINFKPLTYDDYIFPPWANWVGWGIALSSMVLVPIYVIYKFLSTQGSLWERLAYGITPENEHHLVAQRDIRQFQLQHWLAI

As a reminder, the inhibition is the relative decrease from the control value, in per cent. On to `Fc1cc(F)c(OC2CNC2)cc1F` [Example 51, 3-(2,4,5-Trifluorophenoxy)azetidine hydrochloric acid salt], for which the inhibition at 10 µM turned out to be 10% in assay [1], 5% in assay [2] and 25% in assay [3]. Further, in assay [4] (striatum), the “NA Stri, maximum effect compared to baseline ± SEM” value was 475^b % of control. The response vs control in vivo at 50 µmol/kg amounted to 998 ± 470% in assay [4] (setting [5]); 389 ± 134% in assay [4] (setting [6]); 910 ± 389% in assay [4] (setting [7]); 663 ± 63% in assay [4] (setting [8]); 144 ± 4% in assay [4] (setting [9]).
In the case of `Fc1ccc(OC2CNC2)c(F)c1F` [Example 10, 3-(2,3,4-trifluoro-phenoxy)azetidine fumaric acid salt], the inhibition at 10 µM is 15% in assay [1], -2% in assay [2] and 29% in assay [3]. Also, the response vs control in vivo at 50 µmol/kg worked out at 709 ± 139% in assay [4] (setting [5]), 466 ± 161% in assay [4] (setting [6]), 799 ± 137% in assay [4] (setting [7]) and 126 ± 10% in assay [4] (setting [9]).
Consider `Fc1cc(OC2CNC2)cc(F)c1F` [Example 50, 3-(3,4,5-Trifluorophenoxy)azetidine hydrochloric acid salt], for which the inhibition at 10 µM came to 17% in assay [1], 3% in assay [2] and 28% in assay [3]. Moreover, the response vs control in vivo at 50 µmol/kg in assay [4] (setting [5]) is 752 ± 235%; in assay [4] (setting [6]), 787 ± 131%; in assay [4] (setting [8]), 574 ± 45%; in assay [4] (setting [9]), 139 ± 20%.
`Fc1c(F)c(F)c(OC2CNC2)c(F)c1F` [Example 43, 3-(2,3,4,5,6-pentafluoro-phenoxy)azetidine hydrochloric acid salt]: the inhibition at 10 µM in assay [1] was 11%; in assay [2], -1%; in assay [3], -7.6%.
With `CN1CC(Oc2c(F)c(F)cc(F)c2F)C1` [Example 38, 1-methyl-3-(2,3,5,6-tetrafluorophenoxy)azetidine hydrochloric acid salt], the results for the inhibition at 10 µM in assay [1], in assay [2] and in assay [3] were 11%, 6% and -11%, respectively. For the same compound, the “NA Stri, maximum effect compared to baseline ± SEM” value in assay [4] (striatum) was 306 ± 146^a % of control. The response vs control in vivo at 50 µmol/kg was 148 ± 12% in assay [4] (setting [5]); 467 ± 20% in assay [4] (setting [6]); 422 ± 102% in assay [4] (setting [7]); 205 ± 20% in assay [4] (setting [8]); 203 ± 8% in assay [4] (setting [9]).
As for `Fc1cc(F)c(OC2CNC2)c(F)c1` [Example 49, 3-(2,4,6-Trifluorophenoxy)azetidine hydrochloric acid salt], the results for the inhibition at 10 µM in assay [1], in assay [2] and in assay [3] were 12%, 6% and 10%, respectively. In addition, the “NA Stri, maximum effect compared to baseline ± SEM” value in assay [4] (striatum) is 353^b % of control. In addition, the response vs control in vivo at 50 µmol/kg in assay [4] (setting [6]) was 391 ± 131%; in assay [4] (setting [7]) it was 862 ± 437%; in assay [4] (setting [8]), 573 ± 1%; in assay [4] (setting [9]), 135 ± 2%.

Source of the values: US10875829B1, “Azetidine derivatives useful as modulators of cortical catecholaminergic neurotransmission” (Integrative Research Laboratories Sweden AB, priority 2016, dated 2020).
